Measured values from article PMC12332667, “Role of Structural Modifications in Peptidomimetic Compounds as Potential Antimicrobial Agents against Staphylococcus aureus and Streptococcus pyogenes: Balancing Bioavailability, Safety, and Antimicrobial Activity” (ACS Omega, 2025).
Converted amounts (≈) assume the structure as drawn. “And” between values parts separate entries of the source, which are not always exact repeats. Equal values may be shown once.

How the values were obtained:
[1] = test system: K. pneumoniae ATCC 700603; assay: MIC/MBC broth microdilution, K. pneumoniae; assay type: cell-based
Protocol: (§1) S. aureus (ATCC 29213),S. pyogenes (ATCC 19615),Streptococcus agalactiae (ATCC 27956),Escherichia coli (ATCC 25922),Proteus vulgaris (ATCC 6896),K. pneumoniae (ATCC 700603) andP. aeruginosa (ATCC 10145) reference strains, as well asStaphylococcus cohnii, Enterococcus faecalis, Staphylococcus schleiferi, Staphylococcus intermedius and Streptococcus mutans clinical isolates, were used to test the antibacterial activity of the peptidomimetics. Bacteria were aerobically cultured for 18 h at 37 °C in plates with sterilized brain heart infusion (BHI) broth (Sigma-Aldrich, USA) media mixed with bacteriological agar (Sigma-Aldrich, USA) using the streak plate method. After 18 h, BHI broth was inoculated to 0.5 on the McFarland scale and diluted to approximately 10^5 CFU/mL. To achieve a final stock concentration of 1024 μg/mL, the peptidomimetics were dissolved in sterile water, and 5–10% of absolute ethanol or dimethyl sulfoxide (DMSO) was added. The antibacterial activities were determined by using the standard broth microdilution method of the National Committee for Clinical Laboratory Standards. The process involved adding serially diluted peptidomimetics to consecutive wells of a 96-well microtiter plate (Brand, Germany) holding media with microorganisms. The inoculated plates treated with peptides were then placed in an incubator at 37 °C for 18 h. The MIC value was determined as the lowest concentration of peptidomimetic at which there was no obvious growth (equal or more than 90% of the untreated sample). […] The lowest concentration yielding growth in no more than 3 colonies, corresponding to at least a 99.9% kill rate, was taken as MBC. Each biological replicate included control wells with the addition of water, DMSO, and ethanol as respective solvent controls. All experiments were conducted with consistent adherence to growth and sterility controls and were performed at least in technical triplicate with three biological repeats.

S. pyogenes ATCC 19615 = assay: MIC/MBC broth microdilution, S. pyogenes; assay type: cell-based, Streptococcus pyogenes; conditions: S. pyogenes
Protocol: as §1

E. faecalis c.i. = assay: MIC/MBC broth microdilution, E. faecalis; assay type: cell-based, Enterococcus faecalis
Protocol: as §1

S. mutans c.i. = assay: MIC/MBC broth microdilution, S. mutans; assay type: cell-based, Streptococcus mutans
Protocol: as §1

P. aeruginosa ATCC 10145 = assay: MIC/MBC broth microdilution, P. aeruginosa; assay type: cell-based
Protocol: as §1

[2] = Hydrophobicity by reverse-phase chromatography; assay type: physicochemical; conditions: acetonitrile content in the mobile phase at the retention time
Excerpt: Reverse-phase chromatography was employed to assess the hydrophobicity characteristics of the peptidomimetics. Hydrophobicity was quantified by determining the acetonitrile content in the mobile phase at the retention time of a peptidyl derivative (Table S2). The least hydrophobic compound (40% acetonitrile) was A-198, which aligns with the calculations of hydrophobicity by SwissADME and pkCSM (Table ). Next in the hydrophobicity sequence were A-197, A-220, A-219, A-174, and A-221, eluting with 42.5-43.9% of acetonitrile. Then there were followed by […], and A-179, with the acetonitrile percentage of 44.8-49.8. The compounds A-176, A-20, A-152, A-134, and A-210 needed over 50% of acetonitrile to be eluted from the column.

P. vulgaris ATCC 6896 = assay: MIC/MBC broth microdilution, P. vulgaris; assay type: cell-based, Proteus vulgaris
Protocol: as §1

S. aureus ATCC 43300 = assay: MIC/MBC broth microdilution, S. aureus; assay type: cell-based, Staphylococcus aureus; conditions: for MBC / MIC: S. aureus
E. coli ATCC 25922 = assay: MIC/MBC broth microdilution, E. coli; assay type: cell-based, Escherichia coli
Protocol: as §1

[3] = test system: immortalized human HaCaT keratinocytes; assay: XTT cell proliferation assay, keratinocytes; assay type: cell-based; conditions: XTT
Protocol: (§2) In our study, we used two distinct cell types: immortalized human HaCaT keratinocytes (DKFZ, Heidelberg, Germany) and a human dermal fibroblast cell line (46BR.1N). […] Cultures were maintained in a humidified atmosphere with 5% CO2 at 37 °C in 25 cm^2 culture flasks with the medium replenished every 2 days. The condition of the cells was monitored using optical microscopy. […] After 24 h of incubation, the medium was replaced with serum-free HG-DMEM containing appropriate concentrations of peptidomimetics. All solutions used in the experiments were prepared with double-distilled water or with the addition of ethanol under sterile conditions to ensure compatibility with the conditions of the bacteriological assay. For 72 h of incubation, half of the medium was replaced with fresh medium after 48 h, and cells were stimulated with peptides for a second time. The XTT cell proliferation assay was then performed according to the manufacturer’s instructions (Roche, Switzerland). Cells were treated with the peptides for either 48 or 72 h, followed by the addition of XTT reagent, and the plates were then incubated at 37 °C in a 5% CO2 environment for 4 h. Plate readings were taken using a standard plate reader at a wavelength of 490 nm (OD = 490 nm). […] Statistical significance was determined with a Mann–Whitney U test with statistical significance p ≤ 0.05. Analysis was performed with Statistica software, and graphs were prepared in GraphPad Prism.

S. schleiferi c.i. = assay: MIC/MBC broth microdilution, S. schleiferi; assay type: cell-based, Staphylococcus schleiferi
Protocol: as §1

[4] = test system: human dermal fibroblast cell line (46BR.1N); assay: XTT cell proliferation assay, fibroblasts; assay type: cell-based; conditions: XTT
Protocol: as §2

S. intemrdius c.i. = assay: MIC/MBC broth microdilution, S. intermedius; assay type: cell-based, Staphylococcus intermedius
Protocol: as §1

fibroblasts (46BR.1N) = assay: LDH cytotoxicity test, fibroblasts; assay type: cell-based; conditions: 48 h, 50-150 μg/mL
Protocol: In our study, we used two distinct cell types: immortalized human HaCaT keratinocytes (DKFZ, Heidelberg, Germany) and a human dermal fibroblast cell line (46BR.1N). […] Cultures were maintained in a humidified atmosphere with 5% CO2 at 37 °C in 25 cm^2 culture flasks with the medium replenished every 2 days. The condition of the cells was monitored using optical microscopy.
Cell death in immortalized human keratinocytes (HaCaT) and fibroblasts (46BR.1N) was measured by quantifying the lactate dehydrogenase (LDH) activity using a commercial kit (Roche, Switzerland). Cells were seeded in 96-well plates at a density of 5000 cells per well in DMEM high glucose medium supplemented with 10% FBS. After 24 h of incubation, the medium was replaced with serum-free medium containing various concentrations of peptidomimetics (50, 100, and 150 μg/mL). After 48 h, supernatants were collected for LDH analysis. Plate readings were taken spectrophotometrically using a 450 nm wavelength. Cell death measurements were normalized to an untreated control (0%), with 1% Triton X-100 detergent used as a positive control to induce maximum LDH release, indicating maximal cytotoxicity. Statistical significance was determined with a Mann–Whitney U test with a statistical significance p ≤ 0.05. Analysis was performed with Statistica software (Krakow, Poland) and graphs were prepared in GraphPad Prism (Boston, USA).

Q: With `CC(C)[C@@H](CNC(=O)C(=Cc1ccccc1)c1ccccc1)NC(=O)[C@H](CCCNC(=N)N)NC(=O)[C@H](CCCCN)NC(=O)OCc1ccccc1` [Compound A-191] as the compound, how does the MIC ([1]; H2O) read?
A: Its MIC is greater than 512 µg/mL.

Q: What about the MIC ([1]; water additive DMSO) of the same compound?
A: Its MIC is greater than 512 µg/mL.

Q: What about the MBC ([1]; water additive EtOH) of the same compound?
A: Its MBC is greater than 512 µg/mL.

Q: What about the MIC ([1]; water additive EtOH) of the same compound?
A: Its MIC is 512 µg/mL (≈ 704 µM).

Q: And the MBC (S. pyogenes ATCC 19615; H2O)?
A: The MBC was 4 µg/mL (≈ 5.5 µM).

Q: And the MIC (S. pyogenes ATCC 19615; H2O)?
A: The MIC was 4 µg/mL (≈ 5.5 µM).

Q: What about the MBC (S. pyogenes ATCC 19615; water additive DMSO) of the same compound?
A: The MBC was 8 µg/mL (≈ 11 µM).

Q: What about the MIC (S. pyogenes ATCC 19615; water additive DMSO) of the same compound?
A: The MIC was 4 µg/mL (≈ 5.5 µM).

Q: What about the MBC (S. pyogenes ATCC 19615; water additive EtOH) of the same compound?
A: Its MBC is 8 µg/mL (≈ 11 µM).

Q: What about the MIC (S. pyogenes ATCC 19615; water additive EtOH) of the same compound?
A: The MIC was 4 µg/mL (≈ 5.5 µM).

Q: What about the MBC (E. faecalis c.i.; H2O) of the same compound?
A: Its MBC is greater than 512 µg/mL.

Q: And the MIC (E. faecalis c.i.; H2O)?
A: Its MIC is 512 µg/mL (≈ 704 µM).

Q: What about the MBC (E. faecalis c.i.; water additive DMSO) of the same compound?
A: The MBC was greater than 512 µg/mL.

Q: What about the MIC (E. faecalis c.i.; water additive DMSO) of the same compound?
A: The MIC was 512 µg/mL (≈ 704 µM).

Q: And the MIC (E. faecalis c.i.; water additive EtOH)?
A: The MIC was greater than 512 µg/mL.

Q: What about the MIC (S. mutans c.i.; water additive DMSO) of the same compound?
A: Its MIC is 32 µg/mL (≈ 44 µM).

Q: And the MIC (S. mutans c.i.; water additive EtOH)?
A: Its MIC is 32 µg/mL (≈ 44 µM).

Q: And the MBC (P. aeruginosa ATCC 10145; H2O)?
A: Its MBC is 256 µg/mL (≈ 352 µM).

Q: And the MBC (P. aeruginosa ATCC 10145; water additive DMSO)?
A: The MBC was 256 µg/mL (≈ 352 µM).

Q: And the “% AcCN (acetonitrile required for elution from the column)” value [2]?
A: Its value is 44.8% and 44.8–49.8%.

Q: And the MBC (P. vulgaris ATCC 6896; H2O)?
A: The MBC was greater than 512 µg/mL.

Q: And the MIC (P. vulgaris ATCC 6896; H2O)?
A: The MIC was 512 µg/mL (≈ 704 µM).

Q: And the MIC (P. vulgaris ATCC 6896; water additive DMSO)?
A: Its MIC is greater than 512 µg/mL.

Q: And the MBC (P. vulgaris ATCC 6896; water additive EtOH)?
A: The MBC was greater than 512 µg/mL.

Q: And the MIC (P. vulgaris ATCC 6896; water additive EtOH)?
A: Its MIC is 512 µg/mL (≈ 704 µM).

Q: And the MBC (S. aureus ATCC 43300; H2O)?
A: The MBC was 32 µg/mL (≈ 44 µM).

Q: And the MIC (S. aureus ATCC 43300; H2O)?
A: Its MIC is 32 µg/mL (≈ 44 µM).

Q: And the MBC (S. aureus ATCC 43300; water additive DMSO)?
A: Its MBC is 32 µg/mL (≈ 44 µM).

Q: What about the MIC (S. aureus ATCC 43300; water additive DMSO) of the same compound?
A: The MIC was 16 µg/mL (≈ 22 µM).

Q: What about the MBC (S. aureus ATCC 43300; water additive EtOH) of the same compound?
A: The MBC was 32 µg/mL (≈ 44 µM).

Q: And the MIC (S. aureus ATCC 43300; water additive EtOH)?
A: The MIC was 16 µg/mL (≈ 22 µM).

Q: What about the “MIC value for S. aureus” value (S. aureus ATCC 43300; additive not stated) of the same compound?
A: Its value is 16 µg/mL.

Q: What about the MBC (E. coli ATCC 25922; H2O) of the same compound?
A: Its MBC is greater than 512 µg/mL.

Q: What about the MIC (E. coli ATCC 25922; H2O) of the same compound?
A: The MIC was 512 µg/mL (≈ 704 µM).

Q: And the MBC (E. coli ATCC 25922; water additive DMSO)?
A: The MBC was greater than 512 µg/mL.

Q: And the MIC (E. coli ATCC 25922; water additive DMSO)?
A: Its MIC is 512 µg/mL (≈ 704 µM).

Q: What about the MBC (E. coli ATCC 25922; water additive EtOH) of the same compound?
A: Its MBC is greater than 512 µg/mL.

Q: And the MIC (E. coli ATCC 25922; water additive EtOH)?
A: Its MIC is 512 µg/mL (≈ 704 µM).

Q: What about the “proliferation relative to control at 100 and 150 μg/mL” value [3] of the same compound?
A: The value was no more than 20%.

Q: And the “effect on proliferation, in words” value ([3]; 48 and 72 h, 0.01–150 μg/mL)?
A: Its value is “negative impact”.

Q: What about the MBC (S. schleiferi c.i.; H2O) of the same compound?
A: Its MBC is 32 µg/mL (≈ 44 µM).

Q: What about the MIC (S. schleiferi c.i.; H2O) of the same compound?
A: Its MIC is 8 µg/mL (≈ 11 µM).

Q: What about the MBC (S. schleiferi c.i.; water additive DMSO) of the same compound?
A: Its MBC is 32 µg/mL (≈ 44 µM).

Q: What about the MIC (S. schleiferi c.i.; water additive DMSO) of the same compound?
A: Its MIC is 8 µg/mL (≈ 11 µM).

Q: And the MBC (S. schleiferi c.i.; water additive EtOH)?
A: The MBC was 32 µg/mL (≈ 44 µM).

Q: And the MIC (S. schleiferi c.i.; water additive EtOH)?
A: Its MIC is 8 µg/mL (≈ 11 µM).

Q: And the “proliferation relative to control at 100 and 150 μg/mL” value [4]?
A: Its value is no more than 20%.

Q: What about the “effect on proliferation, in words” value ([4]; 48 and 72 h, 0.01–150 μg/mL) of the same compound?
A: Its value is “negative impact”.

Q: And the MIC (S. intemrdius c.i.; H2O)?
A: Its MIC is 32 µg/mL (≈ 44 µM).

Q: What about the MIC (S. intemrdius c.i.; water additive DMSO) of the same compound?
A: The MIC was 32 µg/mL (≈ 44 µM).

Q: And the MIC (S. intemrdius c.i.; water additive EtOH)?
A: Its MIC is 32 µg/mL (≈ 44 µM).

Q: What about the “cytotoxicity (LDH), in words” value (fibroblasts (46BR.1N)) of the same compound?
A: The value was “high cytotoxic effect only to fibroblasts at the highest tested concentration”.
